# Reference: patent US20070066627A1, “Hydrazone derivatives for combatting harmful insects and arachnids” (priority 2004, published 2007)
# System: Bean Aphid (aphis fabae)
# Experiment: Bean aphid test on nasturtium plants
# Assay type: in vivo
# Conditions: 72 h, plant dipped, after 3 days, read-out: mortality in comparison with untreated controls
# Text: 2.4 Bean Aphid (aphis fabae)
# (§1) The active compounds were formulated in 50:50 acetone:water and 100 ppm Kinetic® surfactant.
# Nasturtium plants grown in Metro mix in the 1st leaf-pair stage (variety ‘Mixed Jewle’) were infested with approximately 2-30 laboratory-reared aphids by placing infested cut plants on top of the test plants. The cut plants were removed after 24 hr. Each plant was dipped into the test solution to provide complete coverage of the foliage, stem, protruding seed surface and surrounding cube surface and allowed to dry in the fume hood. The treated plants were kept at about 25° C. with continuous fluorescent light. Aphid mortality was determined after 3 days.
row,Compound,mortality at 300 ppm
1,CC(C=NNC(=O)c1ccc(O)cc1)=Cc1ccc(F)cc1 [Compound 184],> 75%
2,CC(C=NNC(=O)c1ccncc1)=Cc1ccccc1 [Compound 171],> 75%
3,CC(C=NNC(=O)c1cnccc1C(F)(F)F)=Cc1ccc(F)cc1 [Compound 169],> 75%
4,CC(C=NNC(=O)c1cnccc1C(F)(F)F)=Cc1ccccc1 [Compound 168],> 75%
5,CC(C=NNC(=O)c1cc(F)ccc1F)=Cc1ccc(F)cc1 [Compound 202],> 75%
6,CC(C=NNC(=O)c1ccccn1)=Cc1cccc(F)c1 [Compound 159],> 75%
7,CC(C=NNC(=O)c1cccs1)=Cc1ccc(F)cc1 [Compound 71],> 75%
8,CC(C=NNC(=O)c1ccc2ccccc2c1)=Cc1cccc(F)c1 [Compound 210],> 75%
9,O=C(NN=CC(Cl)=Cc1ccccc1)c1ccncc1 [Compound 170],> 75%
10,O=C(NN=CC(Cl)=Cc1ccccc1)c1cccs1 [Compound 69],> 75%
11,CC(C=NNC(=O)c1ccc(F)cc1)=Cc1ccc(F)cc1 [Compound 191],> 75%
12,CC(C=NNC(=O)c1ccccn1)=Cc1cccc(C)c1 [Compound 253],> 75%
13,CCC(C=NNC(=O)c1ccco1)=Cc1ccccc1 [Compound 126],> 75%
14,CC(C=NNC(=O)c1ccccc1F)=Cc1ccc(F)cc1 [Compound 199],> 75%
15,CC(C=NNC(=O)Cc1ccccc1)=Cc1ccccc1 [Compound 18],> 75%
16,O=C(NN=CC(Cl)=Cc1ccccc1)c1ccccn1 [Compound 157],> 75%
17,O=C(NN=CC=Cc1ccccc1)c1ccccc1F [Compound 196],> 75%

# System: Cotton Aphid (aphis gossypii)
# Experiment: Cotton aphid test on cotton cotyledons
# Assay type: in vivo
# Conditions: 120 h, cotyledons dipped, after 5 days, read-out: mortality in comparison with untreated controls
# Text: 2.2 Cotton Aphid (aphis gossypii)
# as §1
# Cotton plants at the cotyledon stage (one plant per pot) were infested by placing a heavily infested leaf from the main colony on top of each cotyledon. The aphids were allowed to transfer to the host plant overnight, and the leaf used to transfer the aphids was removed. The cotyledons were dipped in the test solution and allowed to dry. After 5 days, mortality counts were made.
row,Compound,mortality at 300 ppm
1,CC(C=NNC(=O)c1cc(F)ccc1F)=Cc1cccc(F)c1 [Compound 203],> 75%
2,CC(C=NNC(=O)c1cc(F)ccc1F)=Cc1ccc(F)cc1 [Compound 202],> 75%
3,CC(C=NNC(=O)c1ccc(F)cc1F)=Cc1ccc(F)cc1 [Compound 319],> 75%
4,CC(C=NNC(=O)c1ccccn1)=Cc1cccc(F)c1 [Compound 159],> 75%
5,CC(C=NNC(=O)c1c(F)cccc1F)=Cc1cccc(F)c1 [Compound 207],> 75%
6,CC(C=NNC(=O)c1cccs1)=Cc1ccc(F)cc1 [Compound 71],> 75%
7,CCC(C=NNC(=O)c1cccc(C)n1)=Cc1ccccc1F [Compound 394],> 75%
8,CC(C=NNC(=O)c1cnccn1)=Cc1ccccc1F [Compound 314],> 75%
9,O=C(NN=CC(Cl)=Cc1ccccc1)c1ccco1 [Compound 120],> 75%
10,CCC(C=NNC(=O)c1ccccn1)=Cc1ccccc1F [Compound 392],> 75%
11,CC(C=NNC(=O)c1ncccc1F)=Cc1ccccc1 [Compound 398],> 75%
12,CC(C=NNC(=O)c1ncccc1F)=Cc1ccc(F)cc1 [Compound 399],> 75%
13,CCC(C=NNC(=O)c1cccc(C)n1)=Cc1cccc(F)c1F [Compound 395],> 75%
14,CC(C=NNC(=O)c1cc(Cl)ccn1)=Cc1cccc(F)c1 [Compound 277],> 75%
15,CC(C=NNC(=O)c1ccco1)=Cc1ccccc1 [Compound 121],> 75%
16,CC(C=NNC(=O)c1ccccc1)=Cc1ccc(F)cc1 [Compound 181],> 75%
17,O=C(NN=CC=Cc1ccccc1F)c1ccco1 [Compound 130],> 75%
18,CC(C=NNC(=O)c1ccccc1F)=Cc1ccccc1 [Compound 194],> 75%
19,CCC(C=NNC(=O)c1ccco1)=Cc1ccccc1 [Compound 126],> 75%
20,CC(C=NNC(=O)c1cccs1)=Cc1cccc(F)c1 [Compound 70],> 75%
21,O=C(NN=CC(Cl)=Cc1ccccc1)c1ccccn1 [Compound 157],> 75%
22,CC(C=NNC(=O)c1ccco1)=Cc1cccc(F)c1 [Compound 131],> 75%
23,CC(C=NNC(=O)c1cc(C(C)C)no1)=Cc1cccc(F)c1 [Compound 240],> 75%
24,CC(C=NNC(=O)c1cc(C(C)C)on1)=Cc1ccc(F)cc1 [Compound 236],> 75%

# System: Southern Armyworm (Spodoptera eridania), 2nd Instar Larvae
# Experiment: Southern armyworm leaf-dip test, 2nd instar larvae
# Assay type: in vivo
# Conditions: foliar, 120 h, observation at 5 days, read-out: mortality in comparison with untreated controls
# Protocol: 2.1 Southern Armyworm (Spodoptera eridania), 2nd Instar Larvae
# The active compounds were formulated for testing the activity against insects and arachnids as a 10.000 ppm solution in a mixture of 35% acetone and water, which was diluted with water, if needed.
# A Sieva lima bean leaf expanded to 78 cm in length is dipped in the test solution with agitation for 3 seconds and allowed to dry in a hood. The leaf is then placed in a 100×10 mm petri dish containing a damp filter paper on the bottom and ten 2nd instar caterpillars. At 5 days, observations are made of mortality, reduced feeding, or any interference with normal molting.
row,Compound,mortality at 300 ppm
1,CC(C=NNC(=O)c1ccccc1F)=Cc1cccc(F)c1 [Compound 198],> 80%
2,CC(C=NNC(=O)c1cc(C(C)C)no1)=Cc1ccccc1 [Compound 238],> 80%
3,CC(C=NNC(=O)c1cccnc1)=Cc1cccc(C(F)(F)F)c1 [Compound 161],> 80%
4,CC(C=NNC(=O)c1ccc(F)cc1F)=Cc1ccccc1 [Compound 318],> 80%
5,O=C(NN=CC(Cl)=Cc1ccccc1)c1cccnc1 [Compound 162],> 80%
6,CC(C=NNC(=O)c1ccc(F)cc1)=Cc1ccccc1 [Compound 190],> 80%
7,O=C(NN=CC(Cl)=Cc1ccccc1)c1ccc(Cl)s1 [Compound 97],> 80%
8,CC(C=NNC(=O)c1cccnc1)=Cc1ccccc1 [Compound 160],> 80%
9,COc1ccc(C(=O)NN=CC(C)=Cc2ccccc2)cc1OC [Compound 185],> 80%
10,CC(C=NNC(=O)Cc1ccccc1)=Cc1ccccc1 [Compound 18],> 80%
11,CC(C=NNC(=O)c1cnccn1)=Cc1ccccc1 [Compound 177],> 80%
12,O=C(NN=CC(Br)=Cc1ccccc1)c1ccccc1F [Compound 192],> 80%

# System: Green Peach Aphid (Myzus persicae)
# Experiment: Green peach aphid test on pepper plants
# Assay type: in vivo
# Conditions: 120 h, leaves dipped, after 5 days, read-out: mortality in comparison with untreated controls
# Text: 2.3 Green Peach Aphid (Myzus persicae)
# as §1
# Pepper plants in the 2nd leaf-pair stage (variety ‘California Wonder’) were infested with approximately 40 laboratory-reared aphids by placing infested leaf sections on top of the test plants. The leaf sections were removed after 24 hr. The leaves of the intact plants were dipped into gradient solutions of the test compound and allowed to dry.
# Test plants were maintained under fluorescent light (24 hour photoperiod) at about 25° C. and 20-40% relative humidity. Aphid mortality on the treated plants, relative to mortality on check plants, was determined after 5 days.
row,Compound,mortality at 300 ppm
1,CC(C=NNC(=O)c1ccco1)=Cc1ccc(Cl)cc1 [Compound 128],> 75%
2,CC(C=NNC(=O)c1cc(C(C)C)on1)=Cc1ccccc1 [Compound 235],> 75%
3,CC(C=NNC(=O)c1ccccc1F)=Cc1cccc(F)c1 [Compound 198],> 75%
4,CC(C=NNC(=O)Cc1ccccc1)=Cc1cccc(F)c1 [Compound 19],> 75%
5,CC(C=NNC(=O)c1cccc(F)n1)=Cc1ccccc1 [Compound 400],> 75%
6,O=C(NN=CC=Cc1ccccc1F)c1ccccc1F [Compound 197],> 75%
7,CC(C=NNC(=O)c1cccc(Cl)n1)=Cc1cccc(F)c1 [Compound 397],> 75%
8,CC(C=NNC(=O)c1ccc(F)cc1F)=Cc1ccccc1F [Compound 321],> 75%
9,CC(C=NNC(=O)c1cc(C)nn1C)=Cc1ccccc1 [Compound 152],> 75%
10,CC(C=NNC(=O)c1sccc1C)=Cc1ccccc1 [Compound 76],> 75%
11,CCC(C=NNC(=O)c1ccccn1)=Cc1ccc(F)cc1 [Compound 393],> 75%
12,CC(C=NNC(=O)c1cc(Cl)ccn1)=Cc1ccccc1F [Compound 278],> 75%
13,CC(C=NNC(=O)c1cc(F)ccc1F)=Cc1ccccc1C [Compound 204],> 75%
14,CC(C=NNC(=O)c1ccncc1)=Cc1cccc(F)c1 [Compound 173],> 75%
15,CC(C=NNC(=O)c1ccc(F)cc1F)=Cc1cccc(F)c1 [Compound 320],> 75%
16,CC(C=NNC(=O)c1cc(C(C)C)on1)=Cc1cccc(F)c1 [Compound 237],> 75%
17,COc1ccc(CC(=O)NN=CC(C)=Cc2ccc(F)cc2)cc1OC [Compound 20],> 75%
18,CCC(C=NNC(=O)c1cccc(F)c1)=Cc1ccccc1 [Compound 200],> 75%
19,CC(C=NNC(=O)c1ccccc1F)=Cc1ccccc1 [Compound 194],> 75%
20,COc1ccccc1C(=O)NN=CC(C)=Cc1ccc(F)cc1 [Compound 186],> 75%
21,O=C(NN=CC(Cl)=Cc1ccccc1)c1ccccc1F [Compound 195],> 75%
